Results on 12 compounds are retold here after PubChem BioAssay (NCI).

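Dose response: 5 concentrations. Exposure: 48 h. Format: 96-well plates. Endpoint: linear interpolation; highest concentration if not reached. GI50 = concentration required for 50% inhibition of growth. TGI: total growth inhibition.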 Where a SMILES comes first, the peptide text is derived from it. [ ]: non-standard residue; d: D form. The star is where a group is joined. Phe(4-NO2) = N[CH](Cc1ccc([N+](=O)[O-])cc1)C(=O)O; Boc = CC(C)(C)OC(=O)*; OBn = c1ccc(CO*)cc1 Where only a bound is given, the exact number is not on record here.

Among the test systems are MDA-MB-435; U251 CNS; OVCAR-4 ovarian; MOLT-4 leukemia; HOP-62 NSCLC; OVCAR-3 ovarian; MALME-3M melanoma; CAKI-1 renal; IGROV1 ovarian; NCI-H460 lung.
Holding throughout (assay): NCI tumour cell line growth inhibition, 48 h

Turning to `N#CC1=C2Sc3ccccc3N2[C@H](c2ccccc2)[C@H]2COC(=O)[C@@H]12`, the TGI with MDA-MB-435, with U251 CNS, in the experiment with OVCAR-4 ovarian, in the experiment with MOLT-4 leukemia, in the experiment on HOP-62 NSCLC and in the experiment on OVCAR-3 ovarian was greater than 100 µM in each case. Besides, the figures for the TGI in the experiment on MALME-3M melanoma and in the experiment with CAKI-1 renal were 81.8 µM and 52.8 µM, respectively.
As to `CC(=O)O[C@H]1CC[C@@]2(C)C(=CC[C@@H]3[C@@H]2CC[C@]2(C)C(c4cccnc4)=CC[C@@H]32)C1`, the GI50 was 3.03 µM in the experiment with MDA-MB-435; 4.47 µM with U251 CNS; 26.7 µM in the experiment on IGROV1 ovarian; 4.61 µM with OVCAR-4 ovarian; 5.91 µM in the experiment on NCI-H460 lung; 6.3 µM with MOLT-4 leukemia. Also, the GI50 in the experiment with HOP-62 NSCLC was 6.24 µM; with OVCAR-3 ovarian, 5.52 µM; with MALME-3M melanoma, 3.24 µM; in the experiment on CAKI-1 renal it was 8.38 µM. Moreover, the TGI in the experiment on MDA-MB-435, in the experiment with U251 CNS, in the experiment on IGROV1 ovarian, in the experiment with OVCAR-4 ovarian, with NCI-H460 lung and in the experiment on MOLT-4 leukemia was greater than 100 µM each time. For the same compound, the TGI in the experiment on HOP-62 NSCLC is greater than 100 µM; with OVCAR-3 ovarian it was greater than 100 µM; in the experiment with MALME-3M melanoma, 33.9 µM; in the experiment with CAKI-1 renal it was greater than 100 µM.
For `COC(=O)CCC(NC(=O)OC(C)(C)C)C(=O)NC(Cc1ccc([N+](=O)[O-])cc1)C(=O)NCC(=O)OCc1ccccc1` (configuration not stated) (Boc-Glu(OMe)-[Phe(4-NO2)]-Gly-OBn; configuration not given here), the TGI in the experiment with MDA-MB-435, with U251 CNS, in the experiment on IGROV1 ovarian, in the experiment with OVCAR-4 ovarian, with NCI-H460 lung and in the experiment on MOLT-4 leukemia was greater than 100 µM each time. Besides, the TGI in the experiment on HOP-62 NSCLC is greater than 77.6 µM; in the experiment on OVCAR-3 ovarian, greater than 100 µM; in the experiment with MALME-3M melanoma, greater than 100 µM; in the experiment on CAKI-1 renal, greater than 100 µM.
Regarding `Cc1ccc([N+](=O)[O-])cc1S(=O)(=O)Nc1ccc(C2=NN(c3ccc([N+](=O)[O-])cc3[N+](=O)[O-])C(c3ccccc3)C2)cc1` (configuration not stated), the TGI in the experiment on MDA-MB-435 was 47.4 µM; in the experiment on U251 CNS it was 25.3 µM; in the experiment with IGROV1 ovarian, 36 µM; in the experiment with OVCAR-4 ovarian, 73.7 µM; in the experiment with MOLT-4 leukemia it was 70.8 µM; with HOP-62 NSCLC, 33 µM. Further, the TGI with OVCAR-3 ovarian is 28.4 µM; with MALME-3M melanoma, 41.6 µM; with CAKI-1 renal, greater than 100 µM.
Regarding `CCN1CC(C)Cn2c(=O)[nH]c3cc(Br)cc1c32` (configuration not stated), the TGI with MDA-MB-435 was 9.74 µM; with U251 CNS, greater than 100 µM; in the experiment on IGROV1 ovarian it was greater than 100 µM; with OVCAR-4 ovarian, greater than 100 µM; in the experiment on NCI-H460 lung, greater than 100 µM; in the experiment on MOLT-4 leukemia it was 81.9 µM. For the same compound, the TGI in the experiment on HOP-62 NSCLC is greater than 100 µM; with OVCAR-3 ovarian, 77.5 µM; in the experiment with MALME-3M melanoma, greater than 100 µM; with CAKI-1 renal, greater than 100 µM.
In the case of `CC(=O)Oc1ccc(/C=C/C(=O)O[C@@H](C)[C@H](C)OC(=O)/C=C/c2ccc(OC(C)=O)c(OC(C)=O)c2)cc1OC(C)=O`, the TGI in the experiment with MDA-MB-435, in the experiment with U251 CNS, in the experiment with IGROV1 ovarian, with OVCAR-4 ovarian, in the experiment on NCI-H460 lung and in the experiment on MOLT-4 leukemia was greater than 100 µM throughout. The TGI was 56.3 µM in the experiment on HOP-62 NSCLC, 51.6 µM with OVCAR-3 ovarian, 63.5 µM in the experiment on MALME-3M melanoma and greater than 100 µM in the experiment with CAKI-1 renal.
Consider `COC1C(O)CC(OC2C(C)OC(Oc3cc(O)c4c(O)c5c(cc4c3)C[C@@H]([C@H](OC)C(=O)[C@@H](O)[C@@H](C)O)[C@H](OC3CC(OC4CC(OC6CC(C)(O)C(O)C(C)O6)C(O)C(C)O4)C(O)C(C)O3)C5=O)CC2OC(C)=O)OC1C` (some centres not stated), for which the TGI in the experiment with MDA-MB-435, in the experiment on U251 CNS, in the experiment on IGROV1 ovarian, in the experiment with OVCAR-4 ovarian, in the experiment on NCI-H460 lung and in the experiment on MOLT-4 leukemia was greater than 100 µM in each case. Further, the TGI in the experiment with HOP-62 NSCLC, in the experiment on OVCAR-3 ovarian, with MALME-3M melanoma and in the experiment with CAKI-1 renal was greater than 100 µM in each case.
Turning to `COc1ccc(CCn2cnc3ccccc32)cc1`, the TGI in the experiment on MDA-MB-435, in the experiment with U251 CNS, in the experiment on IGROV1 ovarian, in the experiment with OVCAR-4 ovarian, in the experiment on NCI-H460 lung and with MOLT-4 leukemia was greater than 100 µM each time. For the same compound, the TGI in the experiment with HOP-62 NSCLC, in the experiment on OVCAR-3 ovarian, in the experiment with MALME-3M melanoma and in the experiment on CAKI-1 renal was greater than 100 µM each time.
As for `CC(C)(C)OC(=O)n1cc(C2CNC(=O)C23CCC(=O)N3Cc2ccccc2)c2ccccc21` (configuration not stated), the TGI with MDA-MB-435 was 42.3 µM; in the experiment with U251 CNS, 37.3 µM; with IGROV1 ovarian, 33.6 µM; in the experiment with OVCAR-4 ovarian, 36.2 µM; with NCI-H460 lung, 47.6 µM; with MOLT-4 leukemia, greater than 100 µM. Moreover, the TGI was 57.2 µM with HOP-62 NSCLC, 46.8 µM with OVCAR-3 ovarian, 42.8 µM in the experiment on MALME-3M melanoma and greater than 100 µM in the experiment with CAKI-1 renal.
For `COc1cc2c3cc1Oc1c(O)c(OC)cc4c1[C@H](Cc1ccc(cc1)Oc1cc(ccc1O)C[C@H]3N(C)CC2)N(C)CC4`, the TGI in the experiment with MDA-MB-435 was 27.1 µM; in the experiment with U251 CNS, 28 µM; with IGROV1 ovarian, 36.1 µM; in the experiment on OVCAR-4 ovarian, 48 µM; with NCI-H460 lung, 26.8 µM; in the experiment on MOLT-4 leukemia, greater than 43.8 µM. For the same compound, the TGI in the experiment on HOP-62 NSCLC was found to be 43.8 µM; with OVCAR-3 ovarian, 28.5 µM; in the experiment on MALME-3M melanoma, 36.8 µM; in the experiment with CAKI-1 renal, 86.3 µM.
With `O=C(Nc1ccccc1)O/N=C(/CBr)c1ccccc1`, the TGI is 21.5 µM in the experiment on MDA-MB-435; 30.5 µM in the experiment on U251 CNS; 36.9 µM with IGROV1 ovarian; 33.8 µM in the experiment on OVCAR-4 ovarian; 43.1 µM with NCI-H460 lung; greater than 100 µM with MOLT-4 leukemia. In addition, the TGI with HOP-62 NSCLC turned out to be 68.7 µM; with OVCAR-3 ovarian it was 37.9 µM; in the experiment with MALME-3M melanoma, 33.9 µM; with CAKI-1 renal, 31.7 µM.
As to `COC(=O)c1cc(C)ccc1CC(Cc1cccc(C)c1)C(=O)OC` (configuration not stated), the TGI in the experiment on MDA-MB-435, in the experiment on U251 CNS, in the experiment with IGROV1 ovarian, in the experiment on OVCAR-4 ovarian, with NCI-H460 lung and with MOLT-4 leukemia was greater than 100 µM in each case. Besides, the TGI in the experiment with HOP-62 NSCLC, with OVCAR-3 ovarian, in the experiment on MALME-3M melanoma and in the experiment on CAKI-1 renal was greater than 100 µM in each case.
